Laboratory results from ChEMBL document CHEMBL1240393, “Full Resistance and decreased susceptibility to carbapenems in IMP-13-producing Pseudomonas aeruginosa isolates from an outbreak” (2010).
≈ marks a conversion by molar mass, not a printed value.

Columns and labels:
Pseudomonas aeruginosa [1] = assay: Antibacterial activity against beta-lactamase IMP-13 producing Pseudomonas aeruginosa isolate 1; format: functional
Pseudomonas aeruginosa [2] = assay: Antibacterial activity against beta-lactamase IMP-13 producing Pseudomonas aeruginosa isolate 2; format: functional
Pseudomonas aeruginosa [3] = assay: Antibacterial activity against beta-lactamase IMP-13 producing Pseudomonas aeruginosa isolate 3; format: functional
Pseudomonas aeruginosa [4] = assay: Antibacterial activity against beta-lactamase IMP-13 producing Pseudomonas aeruginosa isolate 4; format: functional
Pseudomonas aeruginosa [5] = assay: Antibacterial activity against beta-lactamase IMP-13 producing Pseudomonas aeruginosa isolate 5; format: functional
Pseudomonas aeruginosa [6] = assay: Antibacterial activity against beta-lactamase IMP-13 producing Pseudomonas aeruginosa isolate 6
Pseudomonas aeruginosa [7] = assay: Antibacterial activity against beta-lactamase IMP-13 producing Pseudomonas aeruginosa isolate 7; format: functional
Pseudomonas aeruginosa [8] = assay: Antibacterial activity against beta-lactamase IMP-13 producing Pseudomonas aeruginosa isolate 8; format: functional
Pseudomonas aeruginosa [9] = assay: Antibacterial activity against beta-lactamase IMP-13 producing Pseudomonas aeruginosa isolate 9
Pseudomonas aeruginosa [10] = assay: Antibacterial activity against beta-lactamase IMP-13 producing Pseudomonas aeruginosa isolate 10; format: functional
Pseudomonas aeruginosa [11] = assay: Antibacterial activity against beta-lactamase IMP-13 producing Pseudomonas aeruginosa isolate 11; format: functional
Pseudomonas aeruginosa [12] = assay: Antibacterial activity against beta-lactamase IMP-13 producing Pseudomonas aeruginosa isolate 12; format: functional
Pseudomonas aeruginosa [13] = assay: Antibacterial activity against beta-lactamase IMP-13 producing Pseudomonas aeruginosa isolate 13; format: functional
Pseudomonas aeruginosa [14] = assay: Antibacterial activity against beta-lactamase IMP-13 producing Pseudomonas aeruginosa isolate 14; format: functional
Pseudomonas aeruginosa [15] = assay: Antibacterial activity against beta-lactamase IMP-13 producing Pseudomonas aeruginosa isolate 15; format: functional
Pseudomonas aeruginosa [16] = assay: Antibacterial activity against beta-lactamase IMP-13 producing Pseudomonas aeruginosa isolate 16; format: functional
Pseudomonas aeruginosa [17] = assay: Antibacterial activity against beta-lactamase IMP-13 producing Pseudomonas aeruginosa isolate 17
Pseudomonas aeruginosa [18] = assay: Antibacterial activity against beta-lactamase IMP-13 producing Pseudomonas aeruginosa isolate 18
Pseudomonas aeruginosa [19] = assay: Antibacterial activity against beta-lactamase IMP-13 producing Pseudomonas aeruginosa isolate 1 assessed as zone of inhibition by disk diffusion assay; format: functional
Pseudomonas aeruginosa [20] = assay: Antibacterial activity against beta-lactamase IMP-13 producing Pseudomonas aeruginosa isolate 2 assessed as zone of inhibition by disk diffusion assay; format: functional
Pseudomonas aeruginosa [21] = assay: Antibacterial activity against beta-lactamase IMP-13 producing Pseudomonas aeruginosa isolate 3 assessed as zone of inhibition by disk diffusion assay; format: functional
Pseudomonas aeruginosa [22] = assay: Antibacterial activity against beta-lactamase IMP-13 producing Pseudomonas aeruginosa isolate 4 assessed as zone of inhibition by disk diffusion assay; format: functional
Pseudomonas aeruginosa [23] = assay: Antibacterial activity against beta-lactamase IMP-13 producing Pseudomonas aeruginosa isolate 5 assessed as zone of inhibition by disk diffusion assay; format: functional
Pseudomonas aeruginosa [24] = assay: Antibacterial activity against beta-lactamase IMP-13 producing Pseudomonas aeruginosa isolate 6 assessed as zone of inhibition by disk diffusion assay; format: functional
Pseudomonas aeruginosa [25] = assay: Antibacterial activity against beta-lactamase IMP-13 producing Pseudomonas aeruginosa isolate 7 assessed as zone of inhibition by disk diffusion assay; format: functional
Pseudomonas aeruginosa [26] = assay: Antibacterial activity against beta-lactamase IMP-13 producing Pseudomonas aeruginosa isolate 8 assessed as zone of inhibition by disk diffusion assay; format: functional
Pseudomonas aeruginosa [27] = assay: Antibacterial activity against beta-lactamase IMP-13 producing Pseudomonas aeruginosa isolate 9 assessed as zone of inhibition by disk diffusion assay; format: functional
Pseudomonas aeruginosa [28] = assay: Antibacterial activity against beta-lactamase IMP-13 producing Pseudomonas aeruginosa isolate 10 assessed as zone of inhibition by disk diffusion assay; format: functional
Pseudomonas aeruginosa [29] = assay: Antibacterial activity against beta-lactamase IMP-13 producing Pseudomonas aeruginosa isolate 11 assessed as zone of inhibition by disk diffusion assay; format: functional
Pseudomonas aeruginosa [30] = assay: Antibacterial activity against beta-lactamase IMP-13 producing Pseudomonas aeruginosa isolate 12 assessed as zone of inhibition by disk diffusion assay; format: functional
Pseudomonas aeruginosa [31] = assay: Antibacterial activity against beta-lactamase IMP-13 producing Pseudomonas aeruginosa isolate 13 assessed as zone of inhibition by disk diffusion assay; format: functional
Pseudomonas aeruginosa [32] = assay: Antibacterial activity against beta-lactamase IMP-13 producing Pseudomonas aeruginosa isolate 14 assessed as zone of inhibition by disk diffusion assay; format: functional
Pseudomonas aeruginosa [33] = assay: Antibacterial activity against beta-lactamase IMP-13 producing Pseudomonas aeruginosa isolate 15 assessed as zone of inhibition by disk diffusion assay; format: functional
Pseudomonas aeruginosa [34] = assay: Antibacterial activity against beta-lactamase IMP-13 producing Pseudomonas aeruginosa isolate 16 assessed as zone of inhibition by disk diffusion assay; format: functional
Pseudomonas aeruginosa [35] = assay: Antibacterial activity against beta-lactamase IMP-13 producing Pseudomonas aeruginosa isolate 17 assessed as zone of inhibition by disk diffusion assay; format: functional
Pseudomonas aeruginosa [36] = assay: Antibacterial activity against beta-lactamase IMP-13 producing Pseudomonas aeruginosa isolate 18 assessed as zone of inhibition by disk diffusion assay; format: functional

Work on C[C@@H](O)[C@H]1C(=O)N2C(C(=O)O)=C(SCCNC=N)C[C@H]12 [IMIPENEM ANHYDROUS] yielded an MIC (Pseudomonas aeruginosa [1]) of 4 µg/mL (≈ 13.4 µM), an MIC (Pseudomonas aeruginosa [2]) of 2 µg/mL (≈ 6.68 µM) and an MIC (Pseudomonas aeruginosa [3]) of 2 µg/mL (≈ 6.68 µM). It also gave an MIC (Pseudomonas aeruginosa [4]) of 2 µg/mL (≈ 6.68 µM), an MIC (Pseudomonas aeruginosa [5]) of 2 µg/mL (≈ 6.68 µM) and an MIC (Pseudomonas aeruginosa [6]) of 2 µg/mL (≈ 6.68 µM). It also gave an MIC (Pseudomonas aeruginosa [7]) of 2 µg/mL (≈ 6.68 µM), an MIC (Pseudomonas aeruginosa [8]) of 2 µg/mL (≈ 6.68 µM) and an MIC (Pseudomonas aeruginosa [9]) of 2 µg/mL (≈ 6.68 µM). It also gave an MIC (Pseudomonas aeruginosa [10]) of 2 µg/mL (≈ 6.68 µM), an MIC (Pseudomonas aeruginosa [11]) of 2 µg/mL (≈ 6.68 µM) and an MIC (Pseudomonas aeruginosa [12]) of 4 µg/mL (≈ 13.4 µM). For the same compound, the MIC (Pseudomonas aeruginosa [13]) was 32 µg/mL (≈ 107 µM), the MIC (Pseudomonas aeruginosa [14]) was 32 µg/mL (≈ 107 µM) and the MIC (Pseudomonas aeruginosa [15]) was 32 µg/mL (≈ 107 µM). For the same compound, the MIC (Pseudomonas aeruginosa [16]) was 32 µg/mL (≈ 107 µM), the MIC (Pseudomonas aeruginosa [17]) was 2 µg/mL (≈ 6.68 µM) and the MIC (Pseudomonas aeruginosa [18]) was 2 µg/mL (≈ 6.68 µM). For the same compound, the “inhibition zone (IZ)” value (Pseudomonas aeruginosa [19]) was 20 mm, the “inhibition zone (IZ)” value (Pseudomonas aeruginosa [20]) was 21 mm and the “inhibition zone (IZ)” value (Pseudomonas aeruginosa [21]) was 20 mm. For the same compound, the “inhibition zone (IZ)” value (Pseudomonas aeruginosa [22]) was 21 mm, the “inhibition zone (IZ)” value (Pseudomonas aeruginosa [23]) was 21 mm and the “inhibition zone (IZ)” value (Pseudomonas aeruginosa [24]) was 20 mm. For the same compound, the “inhibition zone (IZ)” value (Pseudomonas aeruginosa [25]) was 21 mm, the “inhibition zone (IZ)” value (Pseudomonas aeruginosa [26]) was 21 mm and the “inhibition zone (IZ)” value (Pseudomonas aeruginosa [27]) was 18 mm. The “inhibition zone (IZ)” value (Pseudomonas aeruginosa [28]) was 21 mm, the “inhibition zone (IZ)” value (Pseudomonas aeruginosa [29]) was 21 mm and the “inhibition zone (IZ)” value (Pseudomonas aeruginosa [30]) was 18 mm. The “inhibition zone (IZ)” value (Pseudomonas aeruginosa [31]) was 6 mm, the “inhibition zone (IZ)” value (Pseudomonas aeruginosa [32]) was 6 mm and the “inhibition zone (IZ)” value (Pseudomonas aeruginosa [33]) was 7 mm. The “inhibition zone (IZ)” value (Pseudomonas aeruginosa [34]) was 6 mm, the “inhibition zone (IZ)” value (Pseudomonas aeruginosa [35]) was 20 mm and the “inhibition zone (IZ)” value (Pseudomonas aeruginosa [36]) was 21 mm.
Compound C[C@@H](O)[C@H]1C(=O)N2C(C(=O)O)=C(S[C@@H]3CN[C@H](C(=O)N(C)C)C3)[C@H](C)[C@H]12 [MEROPENEM] has an MIC (Pseudomonas aeruginosa [1]) of 4 µg/mL (≈ 10.4 µM), an MIC (Pseudomonas aeruginosa [2]) of 4 µg/mL (≈ 10.4 µM) and an MIC (Pseudomonas aeruginosa [3]) of 4 µg/mL (≈ 10.4 µM). For the same compound, the MIC (Pseudomonas aeruginosa [4]) was 4 µg/mL (≈ 10.4 µM), the MIC (Pseudomonas aeruginosa [5]) was 4 µg/mL (≈ 10.4 µM) and the MIC (Pseudomonas aeruginosa [6]) was 2 µg/mL (≈ 5.22 µM). For the same compound, the MIC (Pseudomonas aeruginosa [7]) was 4 µg/mL (≈ 10.4 µM), the MIC (Pseudomonas aeruginosa [8]) was 4 µg/mL (≈ 10.4 µM) and the MIC (Pseudomonas aeruginosa [9]) was 2 µg/mL (≈ 5.22 µM). The MIC (Pseudomonas aeruginosa [10]) was 4 µg/mL (≈ 10.4 µM), the MIC (Pseudomonas aeruginosa [11]) was 4 µg/mL (≈ 10.4 µM) and the MIC (Pseudomonas aeruginosa [12]) was 8 µg/mL (≈ 20.9 µM). For the same compound, the MIC (Pseudomonas aeruginosa [13]) was 128 µg/mL (≈ 334 µM), the MIC (Pseudomonas aeruginosa [14]) was 128 µg/mL (≈ 334 µM) and the MIC (Pseudomonas aeruginosa [15]) was 128 µg/mL (≈ 334 µM). For the same compound, the MIC (Pseudomonas aeruginosa [16]) was 128 µg/mL (≈ 334 µM), the MIC (Pseudomonas aeruginosa [17]) was 2 µg/mL (≈ 5.22 µM) and the MIC (Pseudomonas aeruginosa [18]) was 2 µg/mL (≈ 5.22 µM). The “inhibition zone (IZ)” value (Pseudomonas aeruginosa [19]) was 18 mm, the “inhibition zone (IZ)” value (Pseudomonas aeruginosa [20]) was 17 mm and the “inhibition zone (IZ)” value (Pseudomonas aeruginosa [21]) was 16 mm. For the same compound, the “inhibition zone (IZ)” value (Pseudomonas aeruginosa [22]) was 21 mm, the “inhibition zone (IZ)” value (Pseudomonas aeruginosa [23]) was 17 mm and the “inhibition zone (IZ)” value (Pseudomonas aeruginosa [24]) was 16 mm. For the same compound, the “inhibition zone (IZ)” value (Pseudomonas aeruginosa [25]) was 17 mm, the “inhibition zone (IZ)” value (Pseudomonas aeruginosa [26]) was 21 mm and the “inhibition zone (IZ)” value (Pseudomonas aeruginosa [27]) was 19 mm. The “inhibition zone (IZ)” value (Pseudomonas aeruginosa [28]) was 20 mm, the “inhibition zone (IZ)” value (Pseudomonas aeruginosa [29]) was 19 mm and the “inhibition zone (IZ)” value (Pseudomonas aeruginosa [30]) was 17 mm. The “inhibition zone (IZ)” value (Pseudomonas aeruginosa [31]) was 6 mm, the “inhibition zone (IZ)” value (Pseudomonas aeruginosa [32]) was 6 mm and the “inhibition zone (IZ)” value (Pseudomonas aeruginosa [33]) was 6 mm. The “inhibition zone (IZ)” value (Pseudomonas aeruginosa [34]) was 6 mm, the “inhibition zone (IZ)” value (Pseudomonas aeruginosa [35]) was 20 mm and the “inhibition zone (IZ)” value (Pseudomonas aeruginosa [36]) was 21 mm.
